Measurements taken from patent US20110104664A1, “BIOMARKERS AND METHODS FOR DETERMINING SENSITIVITY TO MICORTUBULE-STABILIZING AGENTS” (Bristol-Myers Squibb Company, priority 2006, published 2011).

System: invasive stage IIA-IIIB breast adenocarcinoma
Experiment: CA163-080 phase II trial: pathologic complete response (pCR) in the breast after neoadjuvant ixabepilone, Sataloff classification
Type: in vivo, human
Method: CA163-080 (080 trial) is an exploratory genomic phase II study that was conducted in breast cancer patients who received ixabepilone as a neoadjuvant treatment. The primary objective of this study was to identify predictive markers of response to ixabepilone through gene expression profiling of pre-treatment breast cancer biopsies. Patients with invasive stage IIA-IIIB breast adenocarcinoma (tumor size ≧3 cm diameter) received 40 mg/m^2 ixabepilone as a 3-hour infusion on Day for up to four 21-day cycles, followed by surgery within 3-4 weeks of completion of chemotherapy. A total of 164 patients were enrolled in this study. Biopsies for gene expression analysis were obtained both pre- and post-treatment. Upon isolation of biopsies from the patients, samples were either snap frozen in liquid nitrogen or placed into RNAlater solution overnight, followed by removal from the RNAlater solution. All samples were kept at −70° C. until use.
Pathological response was assessed using the Sataloff classification system (D. Sataloff et al., J. Am. Coll. Surg., 180(3):297-306 (1995)) and used as an end point for the pharmacogenomic analysis. The pathologic response was evaluated in the primary tumor site at the end of treatment and prior to surgery by assessing histologic changes compared with baseline as following: At the primary tumor site, cellular modifications were evaluated in both the infiltrating tumoral component and in the possible ductal component, to determine viable residual infiltrating component (% of total tumoral mass); residual ductal component (% of total tumoral mass); the mitotic index. Pathologic Complete Response (pCR) in the breast only was defined as T-A, Total or near total therapeutic effect in primary site. […] The response rate was defined as the number of responders divided by the number of treated patients.
Based on the definition of Pathology Complete Response (pCR), there are 23 responders and 111 non-responders in the 080 trial. Estrogen receptor 1 (ER) was previously found to be the best single-gene predictor with negative prediction value (NPV) 92% and positive prediction value (PPV) 37%, as described in PCT Publication No. ______ (PCT Application No. PCT/US2005/043261).
The data were based on the 080 trial. Patients' ER and PR status were determined by IHC assay.

[1] = 134 patients of the genomic dataset, 080 trial
[2] = ER− group of the genomic dataset

## C/C(=C\c1csc(C)n1)[C@@H]1C[C@@H]2O[C@]2(C)CCC[C@H](C)[C@H](O)[C@@H](C)C(=O)C(C)(C)[C@@H](O)CC(=O)N1 [ixabepilone]
[1]
  number of non-responders (no pCR): 111
  number of responders (pCR): 23
ER+ PR+ patients (IHC), 080 trial
  pCR response rate: 4/62 = 6%
ER+ PR− patients (IHC), 080 trial
  pCR response rate: 4/15 = 26.7%
ER− PR+ patients (IHC), 080 trial
  pCR response rate: 0/9 = 0%
ER− PR− patients (IHC), 40 mg/m^2 3-hour infusion, up to four 21-day cycles, 080 trial
  pCR response rate: 20/61 = 33%
[2]
  number of non-responders (no pCR): 37
  number of responders (pCR): 18
All ER+ patients (IHC), 080 trial
  pCR response rate: 8/77 = 10.4%
All ER− patients (IHC), 080 trial
  pCR response rate: 20/70 = 29%
All PR+ patients (IHC), 080 trial
  pCR response rate: 4/71 = 5.6%
All PR− patients (IHC), 080 trial
  pCR response rate: 24/76 = 31.5%
overall, all patients with ER and PR status, 080 trial
  pCR response rate: Overall: 18%
